Six compounds from patent publication US10683292B2, “Purine and 3-deazapurine analogues as choline kinase inhibitors” (NERVIANO MEDICAL SCIENCES S.R.L., priority 2016, dated 2020) can be followed below.

The target of assay [1] is T1, hChoKβ FL (Homo sapiens, UniProt Q9Y259).
T1 construct: hChoKβ full length (FL), corresponding to aminoacids 2-395; GST (N, cleaved yes); Prescission Protease recognition site (N, cleaved yes); made in house; host or cells: Escherichia coli BL21pLysS (DE3)
Description: Biochemical kinase inhibition assay (Kinase-Glo Luminescent Kinase Assay) on hChoKβ FL. The following applies: ATP 5 μM, choline 20 μM, 60 minutes at rt; read-out: IC50 ChoKβ. For orientation: In Kinase-Glo more light means more ATP remaining.

The target of assay [2] is T2, Δ49N-hChoKα (Homo sapiens, UniProt P35790).
T2 construct: cDNA fragment 362-1534, corresponding to aminoacids 50-457; GST (N, cleaved yes); Prescission Protease recognition site (N, cleaved yes); made in house; host or cells: Escherichia coli BL21pLysS (DE3)
Description: Biochemical kinase inhibition assay (Kinase-Glo Luminescent Kinase Assay) on Δ49N-hChoKα. The following applies: ATP 5 μM, choline 5 μM, 60 minutes at rt; read-out: IC50 ChoKα.
Description: The biochemical activity of compounds against Δ49N-ChoKα and ChoKβ FL were determined using the Kinase-Glo™ Luminescent Kinase Assay (Promega cat. V6711).
Compounds were 3-fold serially diluted from 10 to 0.0005 μM, then incubated for 60 minutes at rt in the presence of ATP 5 μM, choline (5 μM for ChoKα and 20 μM for ChoKβ) and enzyme in a final volume of 19 μL of kinase buffer (50 mM Hepes pH 7.5, 10 mM MgCl2, 1 mM DTT, 3 μM Na3VO4 and 0.2 mg/mL BSA). The final concentration of DMSO was 1%.
At the end of the incubation, an amount of 19 μL of KinaseGlo Reagent was added to each well to stop the reaction and after 30 minutes the luminescence signal was measured using ViewLux reader (Perkin Elmer).
The data per each molecule are analyzed by an internally customized version of the SW package “Assay Explorer” which provides sigmoidal fittings of the ten-dilution curves for IC50 determination using a 4 parameter logistic equation: y=bottom+(top−bottom)/(1+10^((log IC50−x)*slope)) where x is the logarithm of the inhibitor concentration, y is the response; y starts at bottom and goes to top with a sigmoid shape.

Assay [3] relates to MDA-MB-468 breast cancer cell line. Description: Phosphocholine determination assay (mechanism of action in cells), cell extracts. The class given is cell-based. The following applies: 24 h.
Description: Phosphocholine Determination Assay (Mechanism of Action in Cells)
After 24 h, fresh medium and a compound of general formula (I) were added for further 24 h. At the end of the treatment, the cells were trypsinised, counted and the diameter was determined using a Coulter Counter (Multisizer 3, Beckman). […] Then, 0.7 mL ice-cold absolut EtOH were added (final ratio EtOH/H2O 70:30, v/v). After 24 h at −20° C. the samples were sonicated and centrifuged at 14,000×g for 30 minutes.
Phosphocholine concentration levels were assessed in the supernatants using an Ultra High Pressure Liquid Chromatography system (UPLC®, Waters) coupled with a triple quadrupoles mass spectrometer (TQD, Waters) operating in single reaction monitoring mode (SRM). Analyses were performed using Acquity HSS T3 column 2.1×50 mm column, 1.8 μm particle size. […] Waters TQD triple quad mass spectrometer was equipped with an electrospray ion source operating in the positive mode. Source parameters were set as follows: desolvation gas flow 1000 L/h, cone gas flow 50 L/h; collision gas flow 0.2 mL/min; source temperature 130° C.; desolvation temperature 450° C. Dimethyl glicine (DMG) was added to samples as internal standard at 100 μM final concentration. […] The concentration of PCho in the sample was normalized to the total volume of cells (number cells×volume of single cell considered like a sphere).
For assay [4] the test system is unchanged. Kind of assay: Phosphocholine determination in cell medium culture (cell supernatants). The class given is cell-based. The following applies: compound 2 μM. As for the experimental part: For the determination of phosphocholine in cells, extracts were prepared according to ref. Cancer Res., 2005, 65, 9369-9376 with some modifications. MDA-MB-468 breast cancer cell line was plated at 1×10^6 cells in 10 cm petri dish culture in RPMI, 10% FCS culture medium. After 24 h, fresh medium and a compound of general formula (I) were added for further 24 h. At the end of the treatment, the cells were trypsinised, counted and the diameter was determined using a Coulter Counter (Multisizer 3, Beckman). Cells were washed twice with ice-cold physiologic saline solution and 2×10^6 cells resuspended in 0.3 mL ice-cold twice-distilled water. […]
Phosphocholine concentration levels were assessed in the supernatants using an Ultra High Pressure Liquid Chromatography system (UPLC®, Waters) coupled with a triple quadrupoles mass spectrometer (TQD, Waters) operating in single reaction monitoring mode (SRM). […] The monitored transitions were m/z 184.00 to 85.7 (collision energy 24 eV) for phosphocholine and m/z 103.0 to 57.5 (collision energy 13 eV) for DMG. […]
For the determination of phosphocholine in cell medium culture, cell culture supernatants (500 μL) were denatured by adding 100 μL of trichloroacetic acid (TCA) 1M containing dimethyl glicine (DMG) (100 μM), used as internal standard. […] The supernatants were subsequently analyzed for phosphocholine determination.

Molecules are shown by their SMILES.

For orientation: IC50 means the concentration that gives 50% inhibition. What is called inhibition is the change of the read-out against control, counted positive when it falls. A lower inhibition goes with little suppression.

T2 sequence (P35790 50-457, stated change not applied): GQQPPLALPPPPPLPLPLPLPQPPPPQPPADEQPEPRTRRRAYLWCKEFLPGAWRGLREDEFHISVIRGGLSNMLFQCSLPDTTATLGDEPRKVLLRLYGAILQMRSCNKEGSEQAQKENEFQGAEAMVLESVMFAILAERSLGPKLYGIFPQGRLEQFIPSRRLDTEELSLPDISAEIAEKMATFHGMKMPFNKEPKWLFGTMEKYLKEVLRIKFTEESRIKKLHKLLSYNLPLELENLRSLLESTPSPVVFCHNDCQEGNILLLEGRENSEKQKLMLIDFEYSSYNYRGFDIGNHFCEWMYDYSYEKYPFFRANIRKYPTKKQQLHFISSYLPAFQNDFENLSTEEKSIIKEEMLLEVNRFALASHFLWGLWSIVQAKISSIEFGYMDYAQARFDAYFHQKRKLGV
T1 sequence (Q9Y259 2-395): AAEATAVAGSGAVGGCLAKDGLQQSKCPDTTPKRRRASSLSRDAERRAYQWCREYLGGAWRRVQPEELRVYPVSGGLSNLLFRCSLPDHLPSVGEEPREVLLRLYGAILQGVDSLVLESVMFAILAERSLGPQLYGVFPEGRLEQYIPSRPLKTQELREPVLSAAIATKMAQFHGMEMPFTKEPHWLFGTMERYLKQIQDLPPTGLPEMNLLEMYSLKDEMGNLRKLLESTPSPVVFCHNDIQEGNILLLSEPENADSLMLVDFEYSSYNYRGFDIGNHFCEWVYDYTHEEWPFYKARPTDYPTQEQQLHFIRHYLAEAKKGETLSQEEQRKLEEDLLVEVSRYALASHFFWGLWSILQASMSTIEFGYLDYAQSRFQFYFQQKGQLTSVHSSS

On to `Nc1nc(Cl)nc2c1ncn2[C@H]1CC[C@@H](C(=O)Nc2ncc(Cl)s2)CC1` [cpd 114, cis-4-(6-amino-2-chloro-9H-purin-9-yl)-N-(5-chloro-1,3-thiazol-2-yl)cyclohexanecarboxamide], for which the IC50 in assay [1] stood at 4.69 µM; in assay [2], 0.034 µM. At 0.4 µM the inhibition in assay [3] (Homo sapiens, MDA-MB-468, compound 0.4 μM, vs untreated control) was 37%. For the same compound, the inhibition at 2 µM in assay [3] (Homo sapiens, MDA-MB-468, compound 2 μM, vs untreated control) came to 76%; in assay [4] (Homo sapiens, MDA-MB-468, vs untreated control) it was 66%. Besides, the “[Phosphocholine] in MDA-MB-468 cell extracts” value in assay [3] (compound 0.4 μM) was 5.21 mM; in assay [3] (compound 2 μM), 1.98 mM. In addition, in assay [4], the “[Phosphocholine] in MDA-MB-468 cell supernatants” value is 2.50 µM.
Take `CN1CCc2nc(NC(=O)[C@H]3CC[C@@H](n4cnc5c(N)nc(F)nc54)CC3)sc2C1` [cpd 179, cis-4-(6-amino-2-fluoro-9H-purin-9-yl)-N-(5-methyl-4,5,6,7-tetrahydro[1,3]thiazolo[5,4-c]pyridin-2-yl)cyclohexanecarboxamide]: the “[Phosphocholine] in MDA-MB-468 cell extracts” value is on record as 6.40 mM in assay [3] (compound 0.08 μM), 3.27 mM in assay [3] (compound 0.4 μM) and 0.69 mM in assay [3] (compound 2 μM).
`C#Cc1nc(N)c2ncn([C@H]3CC[C@@H](C(=O)Nc4nc5c(s4)CN(C)CC5)CC3)c2n1` [cpd 201, cis-4-(6-amino-2-ethynyl-9H-purin-9-yl)-N-(5-methyl-4,5,6,7-tetrahydro[1,3]thiazolo[5,4-c]pyridin-2-yl)cyclohexanecarboxamide]: the IC50 is over 10 µM in assay [1] and 0.019 µM in assay [2].
On the same counts, the results for `Cc1csc(NC(=O)[C@H]2CC[C@@H](n3cnc4c(N)nccc43)CC2)n1` [cpd 204, cis-4-(4-amino-1H-imidazo[4,5-c]pyridin-1-yl)-N-(4-methyl-1,3-thiazol-2-yl)cyclohexanecarboxamide] are over 10 µM and 1.81 µM.
Take `Nc1nc(Cl)nc2c1ncn2[C@H]1CC[C@@H](C(=O)Nc2nc3c(s2)CCCC3)CC1` [cpd 205, cis-4-(6-amino-2-chloro-9H-purin-9-yl)-N-(4,5,6,7-tetrahydro-1,3-benzothiazol-2-yl)cyclohexanecarboxamide]: the 50% inhibitory concentration (IC50) in assay [1] came to 5.2 µM; in assay [2], 0.015 µM.
The matching figures for `Nc1nc(F)nc2c1ncn2[C@H]1CC[C@@H](C(=O)Nc2nc3c(s2)CCCC3)CC1` [cpd 206, cis-4-(6-amino-2-fluoro-9H-purin-9-yl)-N-(4,5,6,7-tetrahydro-1,3-benzothiazol-2-yl)cyclohexanecarboxamide]: over 10 µM and 0.016 µM.
